Consider 53 molecules from patent US8318762B2, “Pyrazolospiroketone acetyl-CoA carboxylase inhibitors” (Pfizer Inc., priority 2008, dated 2012).

By IC50 is commonly meant the concentration that gives 50% inhibition.

This test has as its target T1, recombinant human ACC2 (Homo sapiens, UniProt O00763).
T1 construct: a full length Cytomax clone of ACC2 was purchased from Cambridge Bioscience Limited; made in house; host or cells: CHO cells (tetracycline induction, pcDNA5 FRT TO-TOPO); purified on a Softlink Soft Release Avidin column
Kind of test: Measurement of human ACC2 inhibition (recombinant hACC2 Transcreener ADP detection FP assay). The format is biochemical. The method, then: [3] Measurement of human ACC2 inhibition. Human ACC2 inhibition was measured using purified recombinant human ACC2 (hrACC2). […] The ACC2 was expressed in CHO cells by tetracycline induction and harvested in 5 liters of DMEM/F12 with glutamine, biotin, hygromycin and blasticidin with 1 μg/mL tetracycline (Invitrogen, Carlsbad, Calif.). The conditioned medium containing ACC2 was then applied to a Softlink Soft Release Avidin column (Promega, Madison, Wis.) and eluted with 5 mM biotin. […] The purified ACC2 was dialyzed in 50 mM Tris, 200 mM NaCl, 4 mM DTT, 2 mM EDTA, and 5% glycerol. […] The final conditions for the assay were 50 mM HEPES, pH7.5, 5 mM MgCl2, 5 mM tripotassium citrate, 2 mM DTT, 0.5 mg/mL BSA, 30 μM acetyl-CoA, 50 μM ATP, and 8 mM KHCO3. Typically, a 10 μl reaction was run for 1 hour at room temperature, and 10 μl of Transcreener stop and detect buffer was added and incubated for an additional 1 hour.

Setting [1] is: recombinant hACC2 transcreener assay, read-out: rhACC2 IC50.

Read-outs that look alike come from different tables or passages of the source.

T1 sequence (O00763 whole entry): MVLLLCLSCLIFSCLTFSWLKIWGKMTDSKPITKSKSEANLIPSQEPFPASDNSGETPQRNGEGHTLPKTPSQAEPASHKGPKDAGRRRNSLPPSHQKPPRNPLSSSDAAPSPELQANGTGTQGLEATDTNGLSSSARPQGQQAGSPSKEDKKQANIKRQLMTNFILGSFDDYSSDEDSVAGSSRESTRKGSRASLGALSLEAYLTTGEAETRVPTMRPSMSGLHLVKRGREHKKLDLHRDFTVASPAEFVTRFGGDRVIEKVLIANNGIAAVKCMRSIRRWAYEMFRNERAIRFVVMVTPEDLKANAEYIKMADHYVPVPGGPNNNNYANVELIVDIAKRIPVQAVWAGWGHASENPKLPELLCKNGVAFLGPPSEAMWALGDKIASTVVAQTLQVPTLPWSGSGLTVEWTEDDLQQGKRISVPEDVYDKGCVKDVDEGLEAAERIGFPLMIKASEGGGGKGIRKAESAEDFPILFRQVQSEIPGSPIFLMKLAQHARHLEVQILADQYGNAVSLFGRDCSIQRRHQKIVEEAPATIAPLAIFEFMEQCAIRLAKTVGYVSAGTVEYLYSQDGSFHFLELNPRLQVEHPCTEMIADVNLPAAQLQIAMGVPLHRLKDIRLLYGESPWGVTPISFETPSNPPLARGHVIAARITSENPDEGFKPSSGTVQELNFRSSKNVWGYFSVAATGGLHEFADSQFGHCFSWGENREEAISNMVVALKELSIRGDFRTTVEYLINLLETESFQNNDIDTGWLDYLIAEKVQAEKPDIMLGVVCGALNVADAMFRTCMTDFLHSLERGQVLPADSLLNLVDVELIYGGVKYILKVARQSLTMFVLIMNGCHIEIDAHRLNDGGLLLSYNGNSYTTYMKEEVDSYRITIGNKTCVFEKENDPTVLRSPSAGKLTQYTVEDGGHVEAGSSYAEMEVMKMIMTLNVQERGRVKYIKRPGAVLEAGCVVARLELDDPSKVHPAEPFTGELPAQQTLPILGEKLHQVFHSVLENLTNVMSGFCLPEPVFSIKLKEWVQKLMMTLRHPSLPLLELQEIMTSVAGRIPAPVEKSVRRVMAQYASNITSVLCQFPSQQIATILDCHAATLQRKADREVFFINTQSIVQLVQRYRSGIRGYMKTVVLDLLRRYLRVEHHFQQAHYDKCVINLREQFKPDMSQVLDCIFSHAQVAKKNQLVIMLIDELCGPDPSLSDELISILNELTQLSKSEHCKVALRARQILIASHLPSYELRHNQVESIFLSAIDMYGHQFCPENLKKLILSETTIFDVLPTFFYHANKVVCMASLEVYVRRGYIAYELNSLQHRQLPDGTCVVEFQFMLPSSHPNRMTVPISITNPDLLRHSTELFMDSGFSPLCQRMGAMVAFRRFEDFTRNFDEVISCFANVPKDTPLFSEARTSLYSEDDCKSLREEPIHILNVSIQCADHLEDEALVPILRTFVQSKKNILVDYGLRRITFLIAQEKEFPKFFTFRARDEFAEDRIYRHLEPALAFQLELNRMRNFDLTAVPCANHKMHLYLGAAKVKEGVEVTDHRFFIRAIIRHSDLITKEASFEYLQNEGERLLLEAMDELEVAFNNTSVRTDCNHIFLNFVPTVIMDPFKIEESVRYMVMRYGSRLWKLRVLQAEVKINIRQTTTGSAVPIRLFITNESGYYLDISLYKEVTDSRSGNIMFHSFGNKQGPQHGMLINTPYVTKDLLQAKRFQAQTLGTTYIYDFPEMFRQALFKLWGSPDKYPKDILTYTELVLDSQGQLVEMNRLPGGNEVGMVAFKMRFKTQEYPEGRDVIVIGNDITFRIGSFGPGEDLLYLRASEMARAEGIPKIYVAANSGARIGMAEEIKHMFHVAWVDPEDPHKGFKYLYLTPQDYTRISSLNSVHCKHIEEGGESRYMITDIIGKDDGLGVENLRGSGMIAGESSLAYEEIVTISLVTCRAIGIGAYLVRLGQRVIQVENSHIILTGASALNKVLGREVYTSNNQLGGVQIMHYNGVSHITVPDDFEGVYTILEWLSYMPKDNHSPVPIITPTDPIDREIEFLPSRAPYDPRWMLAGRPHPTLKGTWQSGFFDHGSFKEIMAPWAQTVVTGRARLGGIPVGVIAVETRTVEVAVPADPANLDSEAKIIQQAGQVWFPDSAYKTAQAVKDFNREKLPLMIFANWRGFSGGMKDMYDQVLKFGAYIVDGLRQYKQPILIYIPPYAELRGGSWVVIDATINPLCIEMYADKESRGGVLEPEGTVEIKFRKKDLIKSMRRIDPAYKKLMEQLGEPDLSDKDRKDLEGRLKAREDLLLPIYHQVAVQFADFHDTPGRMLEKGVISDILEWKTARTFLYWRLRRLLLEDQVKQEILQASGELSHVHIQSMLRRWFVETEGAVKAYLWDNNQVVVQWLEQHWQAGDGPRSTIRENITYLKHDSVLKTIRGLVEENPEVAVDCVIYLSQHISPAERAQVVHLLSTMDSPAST

For the molecule `Cn1ccc2ccc(C(=O)N3CCC4(CC3)CC(=O)c3nn(C(C)(C)C)cc3O4)cc21` [18.001], the IC50 under setting [1] is 3 nM.

Consider `CCn1nc2c(c1C)OC1(CCN(C(=O)c3cc(F)c4cn[nH]c4c3)CC1)CC2=O` [2.016], for which, under setting [1], the IC50 worked out at 200 nM.

On to `Cc1cc(C(=O)N2CCC3(CC2)CC(=O)c2nn(C4CCCCC4)cc2O3)cc2cn[nH]c12` [1.037], for which the IC50 under setting [1] is 60 nM.

Regarding `CCn1nc2c(c1C)OC1(CCN(C(=O)c3cc(C)c4c(c3)ncn4C)CC1)CC2=O` [8.003], the IC50 under setting [1] amounted to 87 nM.

In the case of `Cc1cc(C(=O)N2CCC3(CC2)CC(=O)c2nn(C(C)C)cc2O3)cc2[nH]cnc12` [3.007], under setting [1], the IC50 is 24 nM. Turning to `CC(C)n1cc2c(n1)C(=O)CC1(CCN(C(=O)c3ccc4sncc4c3)CC1)O2` [7.006], the IC50 under setting [1] came to 92 nM.

On to `CC(C)(C)n1cc2c(n1)C(=O)CC1(CCN(C(=O)c3ccc4cn[nH]c4c3F)CC1)O2` [2.017], for which the IC50 under setting [1] was determined as 52 nM. Take `CCn1nc2c(c1C)OC1(CCN(C(=O)c3ccc4c(c3)N(C)C(=O)CC4)CC1)CC2=O` [12.001]: the IC50 under setting [1] is 299 nM. Same read-out and setting: to `Cc1nc2c(C)cc(C(=O)N3CCC4(CC3)CC(=O)c3nn(C(C)C)cc3O4)cc2[nH]1` [3.001] belongs 28 nM; to `Cc1c2c(nn1C)C(=O)CC1(CCN(C(=O)c3ccc4nn(C)cc4c3)CC1)O2` [25.005], 1540 nM.

For the molecule `Cc1nc2ccc(C(=O)N3CCC4(CC3)CC(=O)c3nn(C(C)(C)C)cc3O4)cc2[nH]1` [3.011], the IC50 under setting [1] was determined as 15 nM.

On to `CC(C)n1cc2c(n1)C(=O)CC1(CCN(C(=O)c3cc(Cl)c4cn[nH]c4c3)CC1)O2` [2.006], for which the IC50 under setting [1] is 13 nM. Same read-out and setting: the value for `Cc1cc(C(=O)N2CCC3(CC2)CC(=O)c2nn(C(C)(C)C)cc2O3)cc2c(Cl)n[nH]c12` [1.105] was 2 nM. As for `CCn1cc2c(n1)C(=O)CC1(CCN(C(=O)c3cc(Cl)c4[nH]ncc4c3)CC1)O2` [1.062], the IC50 under setting [1] worked out at 43 nM. On the same count and under the same terms, to `CCn1cc2c(n1)C(=O)CC1(CCN(C(=O)c3cc(OC)c4[nH]ncc4c3)CC1)O2` [1.053] belongs 62 nM. With `CCc1cc(C(=O)N2CCC3(CC2)CC(=O)c2nn(CC)cc2O3)cc2cn[nH]c12` [1.057], the 50% inhibitory concentration (IC50) under setting [1] amounted to 40 nM. For the molecule `Cc1n[nH]c2ccc(C(=O)N3CCC4(CC3)CC(=O)c3nn(C(C)C)c(C)c3O4)cc12` [1.091], under setting [1], the IC50 is 15 nM. In the case of `CCn1nc2c(c1C)OC1(CCN(C(=O)c3ccc4c(c3)nc(C)n4C)CC1)CC2=O` [8.006], the IC50 under setting [1] came to 266 nM. Still for that read-out and setting: to `CCn1nc2c(c1C)OC1(CCN(C(=O)c3ccc4cn[nH]c4c3OC)CC1)CC2=O` [2.021] belongs 70 nM; to `CC(C)(C)n1cc2c(n1)C(=O)CC1(CCN(C(=O)c3ccc4c(c3)NC(=O)CO4)CC1)O2` [12.005], 45 nM; to `Cc1c2c(nn1C)C(=O)CC1(CCN(C(=O)c3cc(Cl)c4[nH]ncc4c3)CC1)O2` [1.063], 137 nM.

As for `CC(C)n1cc2c(n1)C(=O)CC1(CCN(C(=O)c3ccc4ncn(C)c4c3)CC1)O2` [3.015], the IC50 under setting [1] turned out to be 153 nM. As for `Cc1cc(C(=O)N2CCC3(CC2)CC(=O)c2nn(C(C)C)cc2O3)cc2ncn(C)c12` [8.002], under setting [1], the IC50 amounted to 59 nM. The same measure, in the same setting: to `CC(C)n1cc2c(n1)C(=O)CC1(CCN(C(=O)c3ccc4cnsc4c3)CC1)O2` [24.002] belongs 198 nM. Same read-out and setting: to `Cc1cc(C(=O)N2CCC3(CC2)CC(=O)c2nn(CC(C)C)c(C)c2O3)cc2cn[nH]c12` [1.130] belongs 13 nM; to `CCc1nn(C)c2cc(C(=O)N3CCC4(CC3)CC(=O)c3nn(CC)cc3O4)ccc12` [2.008], 81 nM; to `CCc1n[nH]c2c(OC)cc(C(=O)N3CCC4(CC3)CC(=O)c3nn(CC)c(C)c3O4)cc12` [1.045], 22 nM. Turning to `CCOc1cc(C(=O)N2CCC3(CC2)CC(=O)c2nn(C(C)C)c(C)c2O3)cc2cn[nH]c12` [1.122], the IC50 under setting [1] was 5 nM.

On to `CCn1nc2c(c1C)OC1(CCN(C(=O)c3ccc4oncc4c3)CC1)CC2=O` [22.003], for which the IC50 under setting [1] was over 1000 nM. Still for that read-out and setting: to `Cc1cc(C(=O)N2CCC3(CC2)CC(=O)c2nn(C(C)(C)C)cc2O3)cc2[nH]ncc12` [2.018] belongs 33 nM.

Take `Cc1n[nH]c2c(C)cc(C(=O)N3CCC4(CC3)CC(=O)c3nn(C(C)C)cc3O4)cc12` [1.002]: the IC50 under setting [1] stood at 8 nM. `Cc1n[nH]c2c(C)cc(C(=O)N3CCC4(CC3)CC(=O)c3nn(C(C)C)c(C)c3O4)cc12` [1.013]: under setting [1], the IC50 came out at 8 nM. Regarding `CCc1n[nH]c2c(OC)cc(C(=O)N3CCC4(CC3)CC(=O)c3nn(C(C)(C)C)cc3O4)cc12` [1.047], the IC50 under setting [1] came to 2 nM. Same read-out and setting: the value for `CCc1cc(C(=O)N2CCC3(CC2)CC(=O)c2nn(C(C)(C)C)cc2O3)cc2cn[nH]c12` [1.060] was 6 nM.

Turning to `Cc1n[nH]c2ccc(C(=O)N3CCC4(CC3)CC(=O)c3nn(C5CCC5)cc3O4)cc12` [1.089], under setting [1], the IC50 amounted to 22 nM. As for `CCn1nc2c(c1C)OC1(CCN(C(=O)c3cc(C)c4nc[nH]c4c3)CC1)CC2=O` [3.005], the IC50 worked out at 79 nM. For `Cc1n[nH]c2c(C)cc(C(=O)N3CCC4(CC3)CC(=O)c3nn(C)c(C)c3O4)cc12` [1.005], the half-inhibitory concentration (IC50) under setting [1] came out at 117 nM. Turning to `CC(C)(C)n1cc2c(n1)C(=O)CC1(CCN(C(=O)c3cc(Cl)c4cn[nH]c4c3)CC1)O2` [2.009], the IC50 under setting [1] was 7 nM. In the case of `Cc1cc(C(=O)N2CCC3(CC2)CC(=O)c2nn(C4CCOC4)c(C)c2O3)cc2cn[nH]c12` (centres unmarked) [1.041], under setting [1], the IC50 worked out at 46 nM. The same measure, in the same setting: the value for `CC(C)n1cc2c(n1)C(=O)CC1(CCN(C(=O)c3ccc4cn(C)nc4c3)CC1)O2` [5.001] was 675 nM; that for `COc1cc(C(=O)N2CCC3(CC2)CC(=O)c2nn(C(C)(C)C)c(C)c2O3)cc2cn[nH]c12` [1.054] was 29 nM; that for `Cc1cc(C(=O)N2CCC3(CC2)CC(=O)c2nn(C(C)(C)C)cc2O3)cc2ccc(=O)[nH]c12` [11.002] was 11 nM. As for `Cc1nc2c(F)cc(C(=O)N3CCC4(CC3)CC(=O)c3nn(C(C)C)cc3O4)cc2[nH]1` [3.024], the IC50 under setting [1] turned out to be 70 nM. Same read-out and setting: the value for `COc1cc(C(=O)N2CCC3(CC2)CC(=O)c2nn(C(C)C)c(C)c2O3)cc2cn[nH]c12` [1.055] was 10 nM; that for `CCn1nc2c(c1C)OC1(CCN(C(=O)c3cc(Cl)c4[nH]ncc4c3)CC1)CC2=O` [1.061] was 54 nM; that for `Cc1n[nH]c2c(C)cc(C(=O)N3CCC4(CC3)CC(=O)c3nn(C5CCC5)c(C)c3O4)cc12` [1.126] was 3 nM. Still for that read-out and setting: the value for `CCn1nc2c(c1C)OC1(CCN(C(=O)c3ccc4c(c3)ncn4C)CC1)CC2=O` [8.005] was 159 nM; that for `CC(C)(C)n1cc2c(n1)C(=O)CC1(CCN(C(=O)c3ccc4[nH]nc(Cl)c4c3)CC1)O2` [1.103] was 5 nM.

For `Cc1cc(C(=O)N2CCC3(CC2)CC(=O)c2nn(C4CCC4)cc2O3)cc2c(Cl)n[nH]c12` [1.106], the IC50 under setting [1] is 8 nM. Still for that read-out and setting: to `CCn1nc2c(c1C)OC1(CCN(C(=O)c3ccc4c(c3)OCC(=O)N4)CC1)CC2=O` [13.002] belongs 861 nM. Still for that read-out and setting: the value for `COc1cc(C(=O)N2CCC3(CC2)CC(=O)c2nn(CC(C)C)c(C)c2O3)cc2cn[nH]c12` [1.131] was 19 nM; that for `CCc1n[nH]c2ccc(C(=O)N3CCC4(CC3)CC(=O)c3nn(C(C)(C)C)cc3O4)cc12` [1.096] was 12 nM. The same measure, in the same setting: the value for `CC(C)(C)n1cc2c(n1)C(=O)CC1(CCN(C(=O)c3ccc4cccnc4c3)CC1)O2` [16.001] was 12 nM.
